Holding throughout (assay): growth of human tumour cells (NCI), 48 h
Assay [1] deals with PC-3 prostate.
In assay [2] the test system is MDA-N.
The test system of assay [3] is HS 578T breast.
The subject of assay [4] is ACHN renal.
Assay [5] deals with IGROV1 ovarian.
The test system of assay [6] is TK-10 renal.
Assay [7] deals with UO-31 renal.
The test system of assay [8] is DU-145 prostate.
For assay [9], the system named is MDA-MB-435.
In assay [10] the test system is A498 renal.
The test system of assay [11] is CAKI-1 renal.
Assay [12] has as its system COLO 205 colon.
In assay [13] the test system is U251 CNS.
For assay [14], the system named is SW-620 colon.
For assay [15], the system named is MDA-MB-231 breast.
Assay [16] deals with SNB-75 CNS.
Assay [17] relates to HCC-2998 colon.

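1) Cells in 96-well plates. 2) Compound, 48 h, 5 concentrations. 3) Linear interpolation between surrounding doses. 4) Unreached endpoint = highest concentration. GI50: concentration for 50% inhibition of growth. Definition used: TGI = concentration required for complete inhibition of growth.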

Turning to `COC1OC2COC(c3ccccc3)OC2C(OC(=S)c2ccccc2)C1O` (centres undefined), the TGI is 74.9 µM in assay [1]; over 100 µM in assay [2]; over 100 µM in assay [3]; over 100 µM in assay [4]; over 100 µM in [5]; over 100 µM in assay [6]. Also, the TGI in assay [7] was over 100 µM; in assay [8], over 100 µM; in [9], 22.8 µM; in assay [10], over 100 µM; in assay [11] it was over 100 µM; in assay [12], over 100 µM. The TGI in assay [13] is 26.2 µM; in assay [14], over 100 µM; in [15] it was 78.1 µM.
As to H-KIFKKFKTIIKKVWRIFGRF-NH2, in assay [16], the GI50 was 2.5 µM and the TGI is 6.99 µM. For the same molecule, in assay [17], the GI50 is 2.65 µM and the TGI amounted to 7.68 µM.
